According to ChEMBL document CHEMBL4184100, “Discovery of 2-arylquinazoline derivatives as a new class of ASK1 inhibitors” (Bioorg Med Chem Lett, 2018):
In brackets after ≈: the same amount, converted by molar mass.

T1: Mitogen-activated protein kinase kinase kinase 5 (Homo sapiens, UniProt Q99683)
T1 sequence (Q99683 whole entry): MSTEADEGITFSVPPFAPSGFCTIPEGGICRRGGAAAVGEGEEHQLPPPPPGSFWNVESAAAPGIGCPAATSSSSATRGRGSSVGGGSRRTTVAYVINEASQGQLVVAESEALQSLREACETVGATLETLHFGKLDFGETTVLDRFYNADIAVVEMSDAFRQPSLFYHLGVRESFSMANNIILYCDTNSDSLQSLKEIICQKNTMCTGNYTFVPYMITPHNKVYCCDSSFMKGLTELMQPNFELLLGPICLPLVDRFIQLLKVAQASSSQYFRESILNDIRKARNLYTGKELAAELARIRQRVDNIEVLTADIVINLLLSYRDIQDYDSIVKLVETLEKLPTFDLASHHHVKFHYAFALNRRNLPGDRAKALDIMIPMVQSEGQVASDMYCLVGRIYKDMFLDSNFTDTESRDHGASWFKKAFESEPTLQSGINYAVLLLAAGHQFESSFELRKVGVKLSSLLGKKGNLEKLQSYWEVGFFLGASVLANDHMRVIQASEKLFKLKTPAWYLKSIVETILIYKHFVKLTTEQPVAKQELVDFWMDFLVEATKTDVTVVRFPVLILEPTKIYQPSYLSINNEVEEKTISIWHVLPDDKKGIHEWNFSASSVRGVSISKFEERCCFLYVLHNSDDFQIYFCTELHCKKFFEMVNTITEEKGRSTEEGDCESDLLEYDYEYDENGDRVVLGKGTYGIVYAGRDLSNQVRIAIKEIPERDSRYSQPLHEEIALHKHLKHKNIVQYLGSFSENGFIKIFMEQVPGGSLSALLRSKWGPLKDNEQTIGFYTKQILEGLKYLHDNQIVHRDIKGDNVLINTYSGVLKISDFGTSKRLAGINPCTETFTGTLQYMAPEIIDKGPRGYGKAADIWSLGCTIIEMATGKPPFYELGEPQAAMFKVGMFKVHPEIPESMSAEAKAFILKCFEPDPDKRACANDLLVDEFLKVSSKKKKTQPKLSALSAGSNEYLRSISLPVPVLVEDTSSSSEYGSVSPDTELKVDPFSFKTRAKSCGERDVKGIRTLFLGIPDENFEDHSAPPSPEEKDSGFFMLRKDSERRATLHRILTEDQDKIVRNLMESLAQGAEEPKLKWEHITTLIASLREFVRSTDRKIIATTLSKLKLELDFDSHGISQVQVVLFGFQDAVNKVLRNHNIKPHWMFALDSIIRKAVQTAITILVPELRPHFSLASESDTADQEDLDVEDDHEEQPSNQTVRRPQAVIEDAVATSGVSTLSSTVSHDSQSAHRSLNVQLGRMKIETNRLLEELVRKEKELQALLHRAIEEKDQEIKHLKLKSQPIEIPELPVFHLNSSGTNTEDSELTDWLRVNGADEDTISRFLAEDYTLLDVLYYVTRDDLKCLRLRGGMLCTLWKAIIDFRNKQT

T2: CYP1A2 (Homo sapiens, UniProt P05177)
T2 sequence (P05177 whole entry): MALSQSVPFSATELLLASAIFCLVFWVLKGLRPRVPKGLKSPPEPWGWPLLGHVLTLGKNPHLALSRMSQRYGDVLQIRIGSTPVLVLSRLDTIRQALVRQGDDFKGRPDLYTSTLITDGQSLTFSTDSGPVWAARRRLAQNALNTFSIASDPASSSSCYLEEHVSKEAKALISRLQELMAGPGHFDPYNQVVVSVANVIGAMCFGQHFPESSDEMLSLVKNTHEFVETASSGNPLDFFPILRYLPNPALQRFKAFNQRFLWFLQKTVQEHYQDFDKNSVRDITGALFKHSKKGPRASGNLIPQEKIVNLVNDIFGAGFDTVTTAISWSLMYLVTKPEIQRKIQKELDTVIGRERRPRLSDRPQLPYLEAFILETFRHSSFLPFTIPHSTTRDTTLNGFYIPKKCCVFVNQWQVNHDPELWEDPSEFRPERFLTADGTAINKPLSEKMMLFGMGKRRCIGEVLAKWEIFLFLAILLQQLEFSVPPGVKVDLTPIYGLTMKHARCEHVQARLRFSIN


Tests used:
[1] = molecular target: T1, Mitogen-activated protein kinase kinase kinase 5; test: Inhibition of stress-activated full length recombinant human N-terminal GST-tagged ASK1 expressed in baculovirus expression system using MKK6 as substrate pretreated for 10 mins followed by substrate addition by Alphascreen assay
CYP2C9 = CYP2C9 (Homo sapiens, UniProt P11712); test: Inhibition of CYP2C9 (unknown origin) at 10 uM relative to control; type: ADME
Chain of CYP2C9 (P11712 whole entry): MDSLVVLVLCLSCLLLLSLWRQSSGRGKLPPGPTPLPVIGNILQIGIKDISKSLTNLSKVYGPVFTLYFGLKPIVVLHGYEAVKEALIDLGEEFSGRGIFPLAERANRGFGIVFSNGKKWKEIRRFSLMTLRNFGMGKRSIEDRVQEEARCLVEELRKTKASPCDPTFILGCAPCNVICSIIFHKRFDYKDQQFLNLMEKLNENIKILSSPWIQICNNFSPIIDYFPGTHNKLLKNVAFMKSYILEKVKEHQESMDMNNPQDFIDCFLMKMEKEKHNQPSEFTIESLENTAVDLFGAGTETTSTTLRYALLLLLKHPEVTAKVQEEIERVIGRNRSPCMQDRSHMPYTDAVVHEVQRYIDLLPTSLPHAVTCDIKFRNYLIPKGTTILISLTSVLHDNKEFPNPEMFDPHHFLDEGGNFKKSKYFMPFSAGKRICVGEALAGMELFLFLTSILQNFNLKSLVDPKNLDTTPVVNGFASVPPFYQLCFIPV

CYP3A4 = CYP3A4 (Homo sapiens, UniProt P08684); test: Inhibition of CYP3A4 (unknown origin) at 10 uM relative to control; type: ADME
Chain of CYP3A4 (P08684 whole entry): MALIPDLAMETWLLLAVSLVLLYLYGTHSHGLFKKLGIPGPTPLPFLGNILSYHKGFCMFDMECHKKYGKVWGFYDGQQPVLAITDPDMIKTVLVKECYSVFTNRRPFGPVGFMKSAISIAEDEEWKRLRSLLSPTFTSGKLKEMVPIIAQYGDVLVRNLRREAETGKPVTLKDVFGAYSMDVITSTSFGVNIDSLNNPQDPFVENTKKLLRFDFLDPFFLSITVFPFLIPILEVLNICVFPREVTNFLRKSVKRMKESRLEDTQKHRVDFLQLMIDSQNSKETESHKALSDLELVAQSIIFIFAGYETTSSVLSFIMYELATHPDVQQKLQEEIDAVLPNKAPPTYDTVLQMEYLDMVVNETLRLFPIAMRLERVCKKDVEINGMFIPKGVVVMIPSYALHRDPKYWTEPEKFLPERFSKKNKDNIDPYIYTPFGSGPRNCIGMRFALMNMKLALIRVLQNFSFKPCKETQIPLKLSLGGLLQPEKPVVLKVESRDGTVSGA

CYP1A2 = molecular target: T2, CYP1A2; test: Inhibition of CYP1A2 (unknown origin) at 10 uM relative to control; type: ADME
[2] = Stability in mouse liver microsomes; type: ADME, microsome; details: read-out: Stability
[3] = Solubility of the compound in phosphate buffered saline at pH 7.4; type: physicochemical; details: buffer
CYP2D6 = CYP2D6 (Homo sapiens, UniProt P10635); test: Inhibition of CYP2D6 (unknown origin) at 10 uM relative to control; type: ADME
Chain of CYP2D6 (P10635 whole entry): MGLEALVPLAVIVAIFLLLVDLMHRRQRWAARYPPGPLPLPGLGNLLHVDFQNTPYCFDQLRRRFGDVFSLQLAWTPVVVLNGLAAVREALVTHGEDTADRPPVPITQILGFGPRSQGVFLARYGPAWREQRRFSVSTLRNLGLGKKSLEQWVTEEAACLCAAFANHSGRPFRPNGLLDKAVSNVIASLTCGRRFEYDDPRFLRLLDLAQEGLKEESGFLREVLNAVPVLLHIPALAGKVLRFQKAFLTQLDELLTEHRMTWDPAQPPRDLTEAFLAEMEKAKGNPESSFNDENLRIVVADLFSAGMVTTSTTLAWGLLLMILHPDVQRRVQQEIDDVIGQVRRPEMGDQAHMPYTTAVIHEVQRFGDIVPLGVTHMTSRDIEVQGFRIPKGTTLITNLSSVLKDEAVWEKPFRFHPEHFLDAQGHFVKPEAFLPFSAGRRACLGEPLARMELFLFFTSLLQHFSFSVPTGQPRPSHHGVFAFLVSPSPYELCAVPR

[4] = Stability in rat liver microsomes; type: ADME, microsome; details: read-out: Stability
[5] = Stability in human liver microsomes; type: ADME, microsome; details: read-out: Stability
[6] = compound: CC(=O)Nc1cccc(Nc2ncc3ccccc3n2)c1; test: ATP-competitive inhibition of full length recombinant human N-terminal GST-tagged ASK1 expressed in baculovirus expression system assessed as Km for substrate at 1 uM using MKK6 as substrate by Lineweaver-burk plot analysis (reference value: 6.08 +/- 0.4093 10^-6 M)
[7] = compound: CC(=O)Nc1cccc(Nc2ncc3ccccc3n2)c1; test: ATP-competitive inhibition of full length recombinant human N-terminal GST-tagged ASK1 expressed in baculovirus expression system assessed as Km for substrate at 0.5 uM using MKK6 as substrate by Lineweaver-burk plot analysis (reference value: 6.08 +/- 0.4093 10^-6 M)
[8] = compound: CC(=O)Nc1cccc(Nc2ncc3ccccc3n2)c1; test: ATP-competitive inhibition of full length recombinant human N-terminal GST-tagged ASK1 expressed in baculovirus expression system assessed as Km for substrate at 2 uM using MKK6 as substrate by Lineweaver-burk plot analysis (reference value: 6.08 +/- 0.4093 10^-6 M)

IC50 [1] [µM]	Molecule	other results
> 10	c1ccc(Nc2ncnc3nc[nH]c23)cc1	–
> 10	Nc1cccc(Nc2ncc3cc(Br)ccc3n2)c1	–
> 10	Fc1ccc(Nc2ncc3cc(Br)ccc3n2)cc1	–
> 10	Cn1cc(-c2ccc3nc(Nc4ccccc4)ncc3c2)cn1	–
2	CN(C)c1cccc(Nc2nccc(NCCOc3ccccc3)n2)c1	–
> 10	CN(C)c1cccc(Nc2ncnc3[nH]cnc23)c1	–
> 10	CC(=O)Nc1cccc(Nc2ncnc3[nH]cnc23)c1	–
> 10	Clc1cccc(Nc2ncc3ccccc3n2)c1	–
> 10	CC(=O)Nc1cccc(Nc2ncc3cc(Br)ccc3n2)c1	–
> 10	Fc1ccc(Nc2ncnc3[nH]cnc23)cc1	–
0.2	CC(=O)Nc1cccc(Nc2ncc3cc(-c4cn[nH]c4)ccc3n2)c1	inhibition at 10 µM (CYP2C9): 98%; inhibition at 10 µM (CYP3A4): 88%; inhibition at 10 µM (CYP1A2): 49%; half-life [2]: 2 min; solubility [3]: 10 µM (≈ 3.44 µg/mL); inhibition at 10 µM (CYP2D6): 52%; half-life [4]: 4 min; half-life [5]: 42 min
> 10	c1ccc(Nc2ncc3cc(-c4cn[nH]c4)ccc3n2)cc1	–
> 10	CC(=O)Nc1cccc(Nc2ncc3cc(-c4cccc(N)c4)ccc3n2)c1	–
> 10	Clc1cccc(Nc2ncnc3[nH]cnc23)c1	–
> 10	Nc1cccc(Nc2ncc3cc(-c4cccc(N)c4)ccc3n2)c1	–
> 10	Nc1cccc(-c2ccc3nc(Nc4ccccc4)ncc3c2)c1	–
0.6	Nc1cccc(Nc2ncc3cc(-c4cn[nH]c4)ccc3n2)c1	inhibition at 10 µM (CYP2C9): 93%; inhibition at 10 µM (CYP3A4): 52%; inhibition at 10 µM (CYP1A2): 67%; half-life [2]: 2 min; solubility [3]: 17 µM (≈ 5.14 µg/mL); inhibition at 10 µM (CYP2D6): 56%; half-life [4]: 3 min; half-life [5]: 29 min
> 10	CC(C)(C)C(=O)N(c1ccccc1)c1cccc(Nc2ncc3cc(Br)ccc3n2)c1	–
> 10	CC(=O)Nc1cccc(Nc2ncc3cc(-c4cnn(C)c4)ccc3n2)c1	–
> 10	Nc1cccc(Nc2ncc3ccccc3n2)c1	–
> 10	Cn1cc(-c2ccc3nc(Nc4cccc(N)c4)ncc3c2)cn1	–
> 10	Fc1ccc(Nc2ncc3ccccc3n2)cc1	–
> 10	Cn1cc(-c2ccc3nc(Nc4cccc(N(C(=O)C(C)(C)C)c5ccccc5)c4)ncc3c2)cn1	–
> 10	c1ccc(Nc2ncc3ccccc3n2)cc1	–
> 10	Brc1ccc2nc(Nc3ccccc3)ncc2c1	–
> 10	CC(C)(C)C(=O)N(c1ccccc1)c1cccc(Nc2ncc3cc(-c4cn[nH]c4)ccc3n2)c1	–
–	Mitogen-activated protein kinase kinase kinase 5 (Homo sapiens), Q99683 (protein) MSTEADEGITFSVPPFAPSGFCTIPEGGICRRGGAAAVGEGEEHQLPPPPPGSFWNVESAAAPGIGCPAATSSSSATRGRGSSVGGGSRRTTVAYVINEASQGQLVVAESEALQSLREACETVGATLETLHFGKLDFGETTVLDRFYNADIAVVEMSDAFRQPSLFYHLGVRESFSMANNIILYCDTNSDSLQSLKEIICQKNTMCTGNYTFVPYMITPHNKVYCCDSSFMKGLTELMQPNFELLLGPICLPLVDRFIQLLKVAQASSSQYFRESILNDIRKARNLYTGKELAAELARIRQRVDNIEVLTADIVINLLLSYRDIQDYDSIVKLVETLEKLPTFDLASHHHVKFHYAFALNRRNLPGDRAKALDIMIPMVQSEGQVASDMYCLVGRIYKDMFLDSNFTDTESRDHGASWFKKAFESEPTLQSGINYAVLLLAAGHQFESSFELRKVGVKLSSLLGKKGNLEKLQSYWEVGFFLGASVLANDHMRVIQASEKLFKLKTPAWYLKSIVETILIYKHFVKLTTEQPVAKQELVDFWMDFLVEATKTDVTVVRFPVLILEPTKIYQPSYLSINNEVEEKTISIWHVLPDDKKGIHEWNFSASSVRGVSISKFEERCCFLYVLHNSDDFQIYFCTELHCKKFFEMVNTITEEKGRSTEEGDCESDLLEYDYEYDENGDRVVLGKGTYGIVYAGRDLSNQVRIAIKEIPERDSRYSQPLHEEIALHKHLKHKNIVQYLGSFSENGFIKIFMEQVPGGSLSALLRSKWGPLKDNEQTIGFYTKQILEGLKYLHDNQIVHRDIKGDNVLINTYSGVLKISDFGTSKRLAGINPCTETFTGTLQYMAPEIIDKGPRGYGKAADIWSLGCTIIEMATGKPPFYELGEPQAAMFKVGMFKVHPEIPESMSAEAKAFILKCFEPDPDKRACANDLLVDEFLKVSSKKKKTQPKLSALSAGSNEYLRSISLPVPVLVEDTSSSSEYGSVSPDTELKVDPFSFKTRAKSCGERDVKGIRTLFLGIPDENFEDHSAPPSPEEKDSGFFMLRKDSERRATLHRILTEDQDKIVRNLMESLAQGAEEPKLKWEHITTLIASLREFVRSTDRKIIATTLSKLKLELDFDSHGISQVQVVLFGFQDAVNKVLRNHNIKPHWMFALDSIIRKAVQTAITILVPELRPHFSLASESDTADQEDLDVEDDHEEQPSNQTVRRPQAVIEDAVATSGVSTLSSTVSHDSQSAHRSLNVQLGRMKIETNRLLEELVRKEKELQALLHRAIEEKDQEIKHLKLKSQPIEIPELPVFHLNSSGTNTEDSELTDWLRVNGADEDTISRFLAEDYTLLDVLYYVTRDDLKCLRLRGGMLCTLWKAIIDFRNKQT	Km [6]: 7.79 µM; Km [7]: 7.01 µM; Km [8]: 9.3 µM
